Data set [1] is described as follows: Long term (one year) stability study of H2S and thiols in human plasma samples. Conditions: n = 3.
Method: (§1) Long-term stability of H2S and thiols in plasma samples was determined by “accelerated” stability. Samples were incubated in gas tight vials at 60° C. Each day, for five days (and after 1 year), an aliquot was cooled on ice, derivatized, and then analyzed by mass spectrometry. Stability was reported as the mean of the daily stability assay calculated across the five days. The long-term stability was calculated using the following formula: % Stability=(Ct/C0)×100; where C0 is the initial concentration of thiols and Ct is the concentration after each day of incubation. To determine whether the analyte was stable following derivatization, samples from 3 QC levels were kept at auto-sampler temperature and tested for five days. Stability was reported as the mean of the daily stability results for five days using the following formula: % Stability=(Ct/C0)×100; where C0 is the initial concentration of thiols and Ct is the concentration after each day of incubation.
Stability The stability of H2S and thiols in samples was determined through an accelerated stability study of pooled serum samples (Quality Control (QC) samples at 3 concentration levels) analyzed in triplicates at 60° C. for 5 days and compared with fresh matrix that was immediately processed. […] Extract stability was also tested by reanalyzing QC extracts after ≥3 days at 10° C. (auto-sampler temperature) and quantifying against a freshly analyzed sample.
For data set [2] the following is noted: after 5 freeze-thaw cycles, serum. Here is the method: Stability of samples containing H2S and thiols For stability analysis a fresh serum sample was divided into 5 equal aliquots and frozen at −80° C. The aliquots were thawed and analyzed 24 hours later. This process was repeated five times. Percent recovery (stability) was calculated with the following formula: % Stability=100×Ct/C0; where C0 is the initial concentration (μM) of total H2S/thiols in the fresh serum sample and Ct is the concentration after each freeze-thaw cycle. The concentration mean from the 5 freeze-thaw cycles was calculated along with the standard deviation for each compound.

For data set [3] the following is noted: pooled serum QC samples, 60° C., 5 days, vs fresh matrix.
Method: as §1
Stability The stability of H2S and thiols in samples was determined through an accelerated stability study of pooled serum samples (Quality Control (QC) samples at 3 concentration levels) analyzed in triplicates at 60° C. for 5 days and compared with fresh matrix that was immediately processed. […] (auto-sampler temperature) and quantifying against a freshly analyzed sample.
Data set [4] is described as follows: Storage stability of synthesized isotope labelled internal standard [^34S]Na2S and stock master solutions at −80° C. The conditions noted are these: Storage at −80° C.
Method: The internal standard stock solution was prepared by weighing anhydrous [^34S]Na2S (in glovebox under nitrogen atmosphere) and dissolving it in ammonium bicarbonate buffer (pH 10).
IS working solutions were diluted 10-fold immediately before use.
The recovery of IS for H2S and other monitored thiols was examined in human plasma by comparing analyte peak areas in pooled human serum versus vehicle.

SMILES strings stand for the structures. Residues, ends and D or L forms follow the SMILES beside them.

As to `N[C@@H](CS)C(=O)O` [Cysteine], the “Stability (%) = 100 × Ct/C0” value in data set [1] (QC1, one year storage) came to 96.9 ± 6.0%; in data set [1] (QC2, one year storage), 96.6 ± 3.2%; in data set [1] (QC3, one year storage) it was 100.5 ± 1.1%.

`N[C@@H](CS)C(=O)NCC(=O)O` [Cysteinylglycine]: the “Stability (%) = 100 × Ct/C0” value in data set [1] (QC1, one year storage) stood at 91.9 ± 6.5%; in data set [1] (QC2, one year storage), 99.0 ± 3.5%; in data set [1] (QC3, one year storage), 94.4 ± 4.9%.

Turning to `N[C@@H](CCC(=O)O)C(=O)N[C@@H](CS)C(=O)O` [Glutamylcysteine] (H-Glu-Cys-OH), the “Stability (%) = 100 × Ct/C0” value in data set [1] (QC1, one year storage) was determined as 95.6 ± 1.3%; in data set [1] (QC2, one year storage), 96.2 ± 3.5%; in data set [1] (QC3, one year storage) it was 94.3 ± 6.9%.

Take `N[C@@H](CCC(=O)N[C@@H](CS)C(=O)NCC(=O)O)C(=O)O` [Glutathione]: the “Stability (%) = 100 × Ct/C0” value is recorded as 82.1 ± 4.9% in data set [1] (QC1, one year storage); 95.8 ± 5.5% in data set [1] (QC2, one year storage); 99.0 ± 6.1% in data set [1] (QC3, one year storage).

In data set [2], `S` [H2S, Hydrogen sulfide] had a Freeze-thaw stability of 98.6%. In data set [3], the “Sample stability (accelerated)” value is listed as 94.4%. Further, the “Stability (%) = 100 × Ct/C0” value came out at 98.4 ±2.2% in data set [1] (QC1, one year storage); 97.4 ± 4.3% in data set [1] (QC2, one year storage); 99.0 ± 3.9% in data set [1] (QC3, one year storage).

As for `N[C@@H](CCS)C(=O)O` [Homocysteine], the “Stability (%) = 100 × Ct/C0” value in data set [1] (QC1, one year storage) came out at 90.3 ± 5.6%; in data set [1] (QC2, one year storage), 101.3 ± 5.3%; in data set [1] (QC3, one year storage), 108.2 ± 6.9%.

In the case of `[Na+].[Na+].[S-2]` [[^34S]Na2S, ^34S isotope-labeled sodium sulfide], the “% of peak area, storage stability” value in data set [4] (1 Week) is recorded as 100.0 ± 9.7%; in data set [4] (2 Week), 101.3 ± 8.5%; in data set [4] (3 Week) it was 97.3 ± 14.3%; in data set [4] (4 Week), 101.1 ± 8.1%; in data set [4] (5 Week), 96.1 ± 4.5%; in data set [4] (6 Week), 101.1 ± 8.1%. The figures for the “% of peak area, storage stability” value in data set [4] (7 Week) and in data set [4] (8 Week) were 103.7 ± 12.3% and 98.8 ± 19.9%, respectively.

The values above are taken from patent US20250334558A1, “TOTAL HYDROGEN SULFIDE QUANTIFICATION” (The Cleveland Clinic Foundation, priority 2022, published 2025).
